Measurements: DBAASP
≈ marks a conversion by molar mass, not a printed value.

Key:
Assay in all cases: ≥ marks a high value that may be exact or a test limit, other limits are often not marked, values filed in µg/mL are converted to µM
[1] = system: Streptococcus pneumoniae DSM 11865
[2] = system: Staphylococcus aureus ATCC 25923
[3] = system: Escherichia coli DSM 1103
[4] = system: Klebsiella pneumoniae DSM 681
[5] = system: Pseudomonas aeruginosa DSM 1128
[6] = system: Staphylococcus aureus ATCC 9144
[7] = system: Escherichia coli ATCC 10536
[8] = system: Escherichia coli DH5alpha
[9] = system: Bacillus subtilis ATCC 6633
[10] = system: Cladosporium herbarum
[11] = system: Pseudomonas syringae pv. tomato DC3000
[12] = system: Xanthomonas vesicatoria DSM 50861
[13] = system: Botrytis cinerea
[14] = system: Pseudomonas syringae pv. syringae DSM 10604
[15] = system: Alternaria alternata
[16] = system: Clavibacter michiganensis subsp. michiganensis DSM 46294
[17] = system: Pectobacterium carotovorum subsp. carotovorum DSM 30168
[18] = system: Pseudomonas corrugata DSM 7228
[19] = system: Staphylococcus aureus FDA 209P
[20] = system: Escherichia coli IFO 3972
[21] = system: Bacillus anthracis Sterne 34F2
[22] = system: Escherichia coli K91BK
[23] = system: Bacillus subtilis var. niger ATCC 9372

What does the source list for `CC[C@H](C)[C@H](NC(=O)[C@H](CCC(N)=O)NC(=O)[C@H](CCC(=O)O)NC(=O)[C@H](CCC(=O)O)NC(=O)[C@H](CCCCN)NC(=O)[C@@H]1CCCN1C(=O)[C@H](CC(C)C)NC(=O)[C@H](C)NC(=O)[C@H](CO)NC(=O)[C@H](CC(C)C)NC(=O)[C@@H](NC(=O)[C@H](C)N)C(C)C)C(=O)NCC(=O)N[C@@H](CCCCN)C(=O)N[C@@H](C)C(=O)N[C@@H](CO)C(=O)N[C@H](C(=O)N[C@@H](CCCN=C(N)N)C(=O)NCC(=O)N[C@@H](CCCN=C(N)N)C(=O)N[C@@H](CCCCN)C(=O)N[C@@H](C)C(=O)N[C@@H](C)C(=O)N[C@@H](CCCN=C(N)N)C(=O)N[C@@H](CCCN=C(N)N)C(=O)N[C@@H](CCCCN)C(=O)N[C@@H](CCCCN)C(=O)O)[C@@H](C)O` [AVLSALPKEEQIGKASTRGRKAARRKK]?
MIC [1]: ≥ 102 µM; MIC [2]: > 102 µM; MIC [3]: ≥ 102 µM; MIC [4]: ≥ 102 µM; MIC [5]: ≥ 102 µM

`CC[C@H](C)[C@H](NC(=O)[C@H](CCCN=C(N)N)NC(=O)[C@@H](NC(=O)[C@@H](NC(=O)[C@@H]1CCCN1C(=O)[C@@H](NC(=O)[C@@H](NC(=O)[C@H](C)NC(=O)[C@@H]1CCCN1C(=O)CNC(=O)[C@H](Cc1ccc(O)cc1)NC(=O)[C@H](CCCCN)NC(=O)[C@H](CCCCN)NC(=O)[C@H](Cc1c[nH]c2ccccc12)NC(=O)[C@H](C)NC(=O)[C@H](CCCN=C(N)N)NC(=O)[C@H](CC(C)C)NC(=O)[C@@H](NC(=O)[C@H](CCCCN)NC(=O)[C@H](CCCN=C(N)N)NC(=O)CNC(=O)[C@H](CC(C)C)NC(=O)[C@H](CO)NC(=O)[C@H](CCCN=C(N)N)NC(=O)[C@H](CC(C)C)NC(=O)CNC(=O)CN)[C@@H](C)CC)[C@@H](C)CC)C(C)C)[C@@H](C)CC)[C@@H](C)CC)C(N)=O` [GGLRSLGRKILRAWKKYGPAIVPIIRI] was tested. Which MIC [6] did it give?
The MIC was 3.8 µM (≈ 11.5 µg/mL).

And the MIC [7]?
Its MIC is 2.5 µM (≈ 7.58 µg/mL).

What about the MIC [8] of the same compound?
The MIC was 2.7 µM (≈ 8.19 µg/mL).

What about the MIC [9] of the same compound?
The MIC was 1.7 µM (≈ 5.15 µg/mL).

For `CC(C)C[C@H](NC(=O)[C@H](C)NC(=O)[C@H](CCCCN)NC(=O)[C@@H](N)CC(C)C)C(=O)N[C@@H](CCCN=C(N)N)C(=O)N[C@@H](CCCCN)C(=O)N[C@@H](C)C(=O)N[C@@H](CC(C)C)C(=O)N[C@@H](CCCCN)C(=O)N[C@@H](Cc1cnc[nH]1)C(=O)N[C@@H](CC(C)C)C(=O)N[C@@H](C)C(N)=O` [LKALRKALKHLA], which MIC [10] is on record?
Its MIC is 14.7 µM (≈ 20 µg/mL).

What about the MIC [11] of the same compound?
Its MIC is 1.84 µM (≈ 2.5 µg/mL).

And the MIC [12]?
Its MIC is 14.7 µM (≈ 20 µg/mL).

What about the MIC [13] of the same compound?
Its MIC is no less than 73.4 µM.

And the MIC [14]?
Its MIC is 7.34 µM (≈ 9.99 µg/mL).

And the MIC [15]?
The MIC was no less than 73.4 µM.

And the MIC [16]?
Its MIC is 29.4 µM (≈ 40 µg/mL).

And the MIC [17]?
The MIC was 29.4 µM (≈ 40 µg/mL).

What about the MIC [18] of the same compound?
Its MIC is 29.4 µM (≈ 40 µg/mL).

Which MIC [19] does the source give for `NCCCC[C@H](NC(=O)[C@H](CCCN=C(N)N)NC(=O)[C@H](CCCN=C(N)N)NC(=O)[C@H](CCCN=C(N)N)NC(=O)[C@@H]1CCCN1)C(=O)O` [PRRRK] here?
The MIC was no less than 500 µM.

What about the MIC [20] of the same compound?
The MIC was no less than 500 µM.

What does the source list for `CC(=O)N[C@@H](CCCN=C(N)N)C(=O)NCC(=O)N[C@@H](CCCN=C(N)N)C(=O)NCC(=O)N[C@@H](CCCCN)C(=O)N[C@@H](CCC(N)=O)C(=O)NCC(=O)NCC(=O)N[C@@H](CCCCN)C(=O)N[C@H](C(=O)N[C@@H](CCCN=C(N)N)C(=O)N[C@@H](C)C(=O)N[C@@H](CCCCN)C(=O)N[C@@H](C)C(=O)N[C@@H](CCCCN)C(=O)N[C@H](C(=O)N[C@@H](CCCN=C(N)N)C(=O)N[C@@H](CO)C(=O)N[C@@H](CO)C(N)=O)[C@@H](C)O)C(C)C` [RGRGKQGGKVRAKAKTRSS]?
MIC [21]: ≥ 100 µM; MIC [22]: ≥ 100 µM; MIC [23]: ≥ 100 µM
